Experimental data taken from patent publication US10376520B2, “Methods for the treatment of cardiovascular disorders” (Galapagos NV, priority 2015, dated 2019).

Tested on: RA patients
Test: Disease Activity Score 28 (DAS28(CRP)), Study 1
Format: in vivo, human
Description: As used herein, the term ‘DAS28(CRP)’ refers to a clinical scoring ranging from 2.0 to 10.0 to measure the disease status at a given point in time, and thereby follow the progress and improvement of rheumatoid arthritis in a patient, and includes a 28 tender and swollen joint count, CRP measurement from blood analysis, and a general health assessment on a visual analog scale. A DAS28(CRP) value below 2.6 is indicative of remission, A DAS28(CRP) between 2.6 and 3.2 is indicative of low disease activity, between 3.2 and 5.1 is indicative of moderate disease activity, whereas a DAS28(CRP) above 5.1 is linked to high disease activity. (Wells et al., 2008)
Double-blind, placebo-controlled add on study in subjects with moderately to severely active RA who have an inadequate response to methotrexate (MTX) (oral or parenteral).
Compound 1 (dosed as a [Compound 1:HCl:3H2O]) is dosed for twelve weeks once daily (q.d.) (50 mg, 100 mg or 200 mg) or twice daily (b.i.d.) (25 mg, 50 mg or 100 mg); or placebo.
At Week 12, the subjects on placebo who have not achieved 20% improvement in swollen joint count (SJC66) and tender joint count (TJC68) are re-randomized automatically to receive Compound 1 (dosed as a [Compound 1:HCl:3H2O]) either at 100 mg q.d. or 50 mg b.i.d. doses in a blinded fashion; subjects on 50 mg q.d. who have not achieved 20% improvement in SJC66 and TJC68 will be assigned to 100 mg q.d. and subjects on 25 mg b.i.d. that have not achieved a 20% improvement in SJC66 and TJC68 will be assigned to 50 mg b.i.d. Subjects who switch treatment at week 12 are handled as if they discontinued at week 12 for the purpose of statistical analysis, whereas subjects in the other groups will maintain their randomized treatment until Week 24.
The (DAS28(CRP)) is a system developed and validated by the European League Against Rheumatism (EULAR) to measure the progress and improvement of rheumatoid arthritis and has been extensively validated (Wells et al., 2008). The DAS28(CRP) scoring includes a 28 tender and swollen joint count, CRP measurement from blood analysis, and a general health assessment on a visual analog scale (Fransen et al., 2003).
DAS28(CRP) values range from 2.0 to 10.0, and more particularly reflect the following status: • Remission: DAS28(CRP)≤2.6 • Low Disease activity: 2.6<DAS28(CRP)≤3.2 • Moderate Disease Activity: 3.2<DAS28(CRP)≤5.1 • High Disease Activity: DAS28(CRP)>5.1
In practice, the DAS28(CRP) measurement involves the evaluation 28 different joints including in the measurement (proximal interphalangeal joints (10 joints), metacarpophalangeal joints (10), wrists (2), elbows (2), shoulders (2), and knees (2)). When looking at these joints, both the number of joints with tenderness upon touching and swelling are counted.
Firstly, the patient is asked to make a vertical mark on a 100 mm Visual Analog Scale (VAS) corresponding to their general health or global disease activity. Using an electronic touchscreen, the mark is measured from the left-hand side in mm to obtain the VAS value, which is used in the formula below.
Secondly, a swollen and tender joint examination is then performed on the patient. The swollen and tender joints are recorded. From this examination are obtained the total amount of swollen joints (SJC) and the total amount of tender joints (TJC), which are used in the formula below.
Thirdly, C-reactive protein (CRP) levels (in mg/dL) are measured.
Finally, the values obtained above (VAS, JTC28, SJC28, and CRP) are computed into the following Formula to obtain the DAS28(CRP) score.
The number of subjects (N) provided in each groups corresponds to the number of patients starting the study in each group, and the DAS28 (CRP) data reported below corresponds to the responding patients continuing for the entire 24 weeks on their initial treatment course.

`O=C(Nc1nc2cccc(-c3ccc(CN4CCS(=O)(=O)CC4)cc3)n2n1)C1CC1` [Compound 1, cyclopropanecarboxylic acid {5-[4-(1,1-dioxo-thiomorpholin-4-ylmethyl)-phenyl]-[1,2,4]triazolo[1,5-a]pyridin-2yl}-amide] was tested, and the “DAS28(CRP) mean CFB (LOCF) - 24 weeks results” value (50 mg q.d., Week 24) was −1.98, the “DAS28(CRP) mean CFB (LOCF) - 12 weeks results” value (50 mg q.d., week 1) was −0.65 and the “DAS28(CRP) mean CFB (LOCF) - 24 weeks results” value (50 mg q.d., week 1) was −0.65. For the same molecule, the “DAS28(CRP) mean CFB (LOCF) - 12 weeks results” value (50 mg q.d., week 2) was −0.94, the “DAS28(CRP) mean CFB (LOCF) - 24 weeks results” value (50 mg q.d., week 2) was −0.94 and the “DAS28(CRP) mean CFB (LOCF) - 24 weeks results” value (50 mg q.d., week 4) was −1.28. For the same molecule, the “DAS28(CRP) mean CFB (LOCF) - 12 weeks results” value (50 mg q.d., week 12) was −1.75, the “DAS28(CRP) mean CFB (LOCF) - 24 weeks results” value (50 mg q.d., week 12) was −1.75 and the “DAS28(CRP) mean CFB (LOCF) - 24 weeks results” value (100 mg q.d., week 1) was −1.00. For the same molecule, the “DAS28(CRP) mean CFB (LOCF) - 12 weeks results” value (100 mg q.d., week 2) was −1.50, the “DAS28(CRP) mean CFB (LOCF) - 24 weeks results” value (100 mg q.d., week 16) was −2.51 and the “DAS28(CRP) mean CFB (LOCF) - 24 weeks results” value (100 mg q.d., week 24) was −2.70. For the same molecule, the “% patients reaching low disease activity and/or remission at week 24 (LOCF)” value (200 mg q.d.) was 52%, the “DAS28(CRP) mean CFB (LOCF) - 24 weeks results” value (200 mg q.d., week 1) was −1.17 and the “DAS28(CRP) mean CFB (LOCF) - 24 weeks results” value (200 mg q.d., week 2) was −1.52. The “DAS28(CRP) mean CFB (LOCF) - 12 weeks results” value (200 mg q.d., week 8) was −2.30, the “DAS28(CRP) mean CFB (LOCF) - 24 weeks results” value (200 mg q.d., week 16) was −2.70 and the “DAS28(CRP) mean CFB (LOCF) - 24 weeks results” value (200 mg q.d., week 24) was −2.80. The “% patients reaching low disease activity and/or remission at week 24 (LOCF)” value (2 × 25 mg b.i.d.) was 49%, the “DAS28(CRP) mean CFB (LOCF) - 12 weeks results” value (2 × 25 mg b.i.d., Week 1) was −0.68 and the “DAS28(CRP) mean CFB (LOCF) - 24 weeks results” value (2 × 25 mg b.i.d., Week 1) was −0.68. The “DAS28(CRP) mean CFB (LOCF) - 12 weeks results” value (2 × 25 mg b.i.d., Week 4) was −1.45, the “DAS28(CRP) mean CFB (LOCF) - 24 weeks results” value (2 × 25 mg b.i.d., Week 4) was −1.45 and the “DAS28(CRP) mean CFB (LOCF) - 12 weeks results” value (2 × 25 mg b.i.d., Week 8) was −1.82. The “DAS28(CRP) mean CFB (LOCF) - 24 weeks results” value (2 × 25 mg b.i.d., Week 8) was −1.82, the “DAS28(CRP) mean CFB (LOCF) - 12 weeks results” value (2 × 50 mg b.i.d., Week 1) was −0.84 and the “DAS28(CRP) mean CFB (LOCF) - 24 weeks results” value (2 × 50 mg b.i.d., Week 1) was −0.84. The “DAS28(CRP) mean CFB (LOCF) - 12 weeks results” value (2 × 50 mg b.i.d., Week 12) was −2.10, the “DAS28(CRP) mean CFB (LOCF) - 24 weeks results” value (2 × 50 mg b.i.d., Week 12) was −2.10 and the “DAS28(CRP) mean CFB (LOCF) - 24 weeks results” value (2 × 50 mg b.i.d., Week 20) was −2.40. For the same molecule, the “DAS28(CRP) mean CFB (LOCF) - 24 weeks results” value (2 × 50 mg b.i.d., Week 24) was −2.40, the “DAS28(CRP) mean CFB (LOCF) - 12 weeks results” value (2 × 100 mg b.i.d., Week 8) was −2.72 and the “DAS28(CRP) mean CFB (LOCF) - 24 weeks results” value (2 × 100 mg b.i.d., Week 8) was −2.72.
